Results: US8198307B2, “Imidazole derivatives having aryl piperidine substituent, method for preparation thereof and pharmaceutical compositions containing same” (Korea Research Institute of Chemical Technology, priority 2007, dated 2012)

What follows are compounds tested against T1, MCH R1 (melanine-concentrating hormone receptor-1) (Homo sapiens, UniProt Q99705) (assay: Inhibitory effects on MCH R1 binding (Eu-MCH time-resolved fluorescence binding assay)). Details: not given.
T1 construct: purchased Euroscreen, Gosselies, Belgium
T1 sequence (Q99705 whole entry, species assumed): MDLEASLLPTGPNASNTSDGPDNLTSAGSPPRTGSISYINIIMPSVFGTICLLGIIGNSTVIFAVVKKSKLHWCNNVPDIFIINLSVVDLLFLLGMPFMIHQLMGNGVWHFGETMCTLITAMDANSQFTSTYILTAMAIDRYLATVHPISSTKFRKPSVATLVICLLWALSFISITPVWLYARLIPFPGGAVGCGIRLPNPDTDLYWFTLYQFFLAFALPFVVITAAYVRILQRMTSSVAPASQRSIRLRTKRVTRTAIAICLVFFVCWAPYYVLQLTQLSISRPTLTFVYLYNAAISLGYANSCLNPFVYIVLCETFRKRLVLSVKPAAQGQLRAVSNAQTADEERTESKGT
Protocol: First, MCH R1 (melanine-concentrating hormone receptor-1; Euroscreen, Gosselies, Belgium), 1 μM Europium-labeled melanine-concentrating hormone (Eu-MCH, PerkinElmer, Turku, Finland) and 1 mM melanine-concentrating hormone (MCH, #070-47, Phoenix, Belmont Calif., USA) were kept at 4° C. for ready use. 1 μM Eu-MCH and 1 mM MCH were diluted with an experimental solution (25 mM HEPES pH 7.4, 5 mM MgCl2, 1 mM CaCl2 and 0.5% (w/w) BSA) to 8 nM (final reaction concentration: 2 nM) and 2 μM (final reaction concentration: 0.5 μM), respectively. The compounds prepared in the Examples (“Test compounds”) were dissolved in the experimental solution in concentration of 4 nM to 40 μM (final reaction concentration: 1 nM to 10 μM). MCH R1 (200 assays/vial) was homogeneously dispersed in the experimental solution.
Then, 100 μl/well of the following reaction mixture was added to the wells of a microplate (Multiwell 96 well filter plates PN5020, Pall Co., Ann Arbor, Mich., USA) equipped with a filter paper, with an 8-channel pipette (multi 8-channel, Eppendorf, Hamburg, Germany). Specifically, to the wells of a non-specific binding control group, 25 μl of Eu-MCH, 50 μl of MCH R1 and 25 μl of MCH were added. Further, 25 μl of the experimental solution supplemented with 10% (w/w) of DMSO, 25 μl of Eu-MCH and 50 μl of MCH R1 were added to the wells of a total binding control group, while 25 μl of the test compounds, 25 μl Eu-MCH and 50 μl of MCH R1 were added to the wells of an experimental group. Subsequently, the microplate was shaken gently for 15 seconds and kept at room temperature for 90 minutes to allow the reaction to take place. Then, the plate was washed with a microplate washer (EMBLA, Molecular Devices) by washing three times with 300 μl of a washing solution (25 mM HEPES pH 7.4, 5 mM MgCl2, 1 mM CaCl2) to remove the residual unreacted Eu-MCH. Moisture was removed from the bottom of the wells and 150 μl of dissociation solution (DELFIA Enhancement solution, PerkinElmer, Turku, Finland) was added to each well, followed by keeping the plate at room temperature for 2 to 4 hours. Subsequently, time-resolved fluorescence (TRF) values were measured with a multilabel counter (Victor2, PerkinElmer, Turku, Finland) (emission wave length: 615 nm, excitation wave length: 340 nm). The inhibition rate based on the time-resolved fluorescence data was calculated using the following Equation (I). Inhibition rate of time-resolved fluorescence (%)=[(Average TRF value of the total binding group−Time-resolved fluorescence value of the test compound)/(Average TRF value of the total binding group−Average TRF value of the non-specific binding group)]×100 (I)
In the case of CC(=O)Nc1cccc(C2CCN(CCCn3c(-c4ccc(Cl)cc4)nc4cc([N+](=O)[O-])ccc43)CC2)c1 [Example 85, 2-(4-chlorophenyl)-1-{3-[4-(3-acetylaminophenyl)piperidin-1-yl]propyl}-5-nitro-1H-benzimidazole], the IC50 is reported as 0.07 µM.

Same assay, conditions: concentration inhibiting the binding of MCH (Eu-MCH, 2 nM) to MCH R1 by 50% in vitro; TRF readout; test range 1 nM to 10 μM; read-out: IC50
CC(C)C(=O)Nc1cccc(C2CCN(CCn3c(-c4ccc(Cl)cc4)nc4ccccc43)CC2)c1 [Example 71, 2-(4-chlorophenyl)-1-{2-[4-(3-isobutyrylaminophenyl)piperidin-1-yl]ethyl}-1H-benzimidazole] was tested, and the IC50 was > 10 µM.
CC(=O)Nc1cccc(C2CCN(CCCn3c(-c4ccccc4)nc4cc(C)c(C)cc43)CC2)c1 [Example 21, 2-phenyl-1-{3-[4-(3-acetylaminophenyl)piperidin-1-yl]propyl}-5,6-dimethyl-1H-benzimidazole] was tested, and the IC50 was 0.005 µM.
CC(=O)Nc1cccc(C2CCN(CCCn3c(-c4cccc(Br)c4)nc4ccccc43)CC2)c1 [Example 13, 2-(3-bromophenyl)-1-{3-[4-(3-acetylaminophenyl)piperidin-1-yl]propyl}-1H-benzimidazole] showed an IC50 of 0.001 µM.
Work on CC(=O)Nc1cccc(C2CCN(CCCn3c(-c4ccc(Cl)c(Cl)c4)nc4ccccc43)CC2)c1 [Example 12, 2-(3,4-dichlorophenyl)-1-{3-[4-(3-acetylaminophenyl)piperidin-1-yl]propyl}-1H-benzimidazole] yielded an IC50 of 0.024 µM.
With CC(=O)Nc1cccc(C2CCN(CCCn3c(-c4cccnc4)nc4ccccc43)CC2)c1 [Example 105, 2-(pyridin-3-yl)-1-{3-[4-(3-acetamidophenyl)piperidin-1-yl]propyl}-1H-benzimidazole] the IC50 was 0.06 µM.
With CC(=O)Nc1cccc(C2CCN(CCCn3c(-c4ccc(F)cc4Cl)nc4cc(C)c(C)cc43)CC2)c1 [Example 80, 2-(2-chloro-4-fluorophenyl)-1-{3-[4-(3-acetylaminophenyl)piperidin-1-yl]propyl}-5,6-dimethyl-1H-benzimidazole] the IC50 was 0.08 µM.
COc1cc(Cl)ccc1-c1nc2cc(C)c(C)cc2n1CCCN1CCC(c2cccc(NC(C)=O)c2)CC1 [Example 86, 2-(4-chloro-2-methoxyphenyl)-1-{3-[4-(3-acetylaminophenyl)piperidin-1-yl]propyl}-5,6-dimethyl-1H-benzimidazole] showed an IC50 of 0.11 µM.
With CC(=O)Nc1cccc(C2CCN(CCCn3c(C)nc4ccccc43)CC2)c1 [Example 88, 2-methyl-1-{3-[4-(3-acetylaminophenyl)piperidin-1-yl]propyl}-1H-benzimidazole] the IC50 was > 10 µM.
CC(=O)Nc1cccc(C2CCN(CCCn3c(-c4cccc(Cl)c4)nc4ccc([N+](=O)[O-])cc43)CC2)c1 [Example 41, 2-(3-chlorophenyl)-1-{3-[4-(3-acetylaminophenyl)piperidin-1-yl]propyl}-6-nitro-1H-benzimidazole] gave an IC50 of 0.635 µM.
Work on CC(=O)Nc1cccc(C2CCN(CCCn3c(-c4ccncc4)nc4ccccc43)CC2)c1 [Example 106, 2-(pyridin-4-yl)-1-{3-[4-(3-acetamidophenyl)piperidin-1-yl]propyl}-1H-benzimidazole] yielded an IC50 of 0.15 µM.
CC(=O)Nc1cccc(C2CCN(CCCn3c(-c4ccc(F)cc4Cl)nc4ccccc43)CC2)c1 [Example 54, 2-(2-chloro-4-fluorophenyl)-1-{3-[4-(3-acetylaminophenyl)piperidin-1-yl]propyl}-1H-benzimidazole] was tested, and the IC50 was 0.004 µM.
With CC(=O)Nc1cccc(C2CCN(CCCn3c(-c4cccnc4)nc4cc(Cl)ccc43)CC2)c1 [Example 116, 5-chloro-2-(pyridin-3-yl)-1-{3-[4-(3-acetamidophenyl)piperidin-1-yl]propyl}-1H-benzimidazole] the IC50 was 0.048 µM.
CC(=O)Nc1cccc(C2CCN(CCCn3c(-c4cccn4C)nc4cc(C)c(C)cc43)CC2)c1 [Example 121, 5,6-dimethyl-2-(1-methylpyrrol-2-yl)-1-{3-[4-(3-acetamidophenyl)piperidin-1-yl]propyl}-1H-benzimidazole] was tested, and the IC50 was 0.005 µM.
CC(=O)Nc1cccc(C2CCN(CCCn3c(-c4ccccc4)nc4ccc(C)cc43)CC2)c1 [Example 23, 2-phenyl-1-{3-[4-(3-acetylaminophenyl)piperidin-1-yl]propyl}-6-methyl-1H-benzimidazole] was tested, and the IC50 was 0.016 µM.
CC(=O)Nc1cccc(C2CCN(CCCn3c(-c4ccccc4)nc4ccccc43)CC2)c1 [Example 3, 2-phenyl-1-{3-[4-(3-acetylaminophenyl)piperidin-1-yl]propyl}-1H-benzimidazole] showed an IC50 of 0.002 µM.
CC(=O)Nc1cccc(C2CCN(CCCn3c(Cc4cccnc4)nc4ccccc43)CC2)c1 [Example 126, 2-(pyridin-3-ylmethyl)-1-{3-[4-(3-acetamidophenyl)piperidin-1-yl]propyl}-1H-benzimidazole] gave an IC50 of 0.047 µM.
CC(=O)Nc1cccc(C2CCN(CCCn3c(-c4ccc(Cl)cc4F)nc4ccccc43)CC2)c1 [Example 53, 2-(4-chloro-2-fluorophenyl)-1-{3-[4-(3-acetylaminophenyl)piperidin-1-yl]propyl}-1H-benzimidazole] was tested, and the IC50 was 0.001 µM.
In the case of CC(=O)Nc1cccc(C2CCN(CCCn3c(-c4cccc(Cl)c4)nc4ccccc43)CC2)c1 [Example 10, 2-(3-chlorophenyl)-1-{3-[4-(3-acetylaminophenyl)piperidin-1-yl]propyl}-1H-benzimidazole], the IC50 is reported as 0.005 µM.
CC(=O)Nc1cccc(C2CCN(CCCn3c(-c4ccc(Br)cc4)nc4ccccc43)CC2)c1 [Example 11, 2-(4-bromophenyl)-1-{3-[4-(3-acetylaminophenyl)piperidin-1-yl]propyl}-1H-benzimidazole] gave an IC50 of 0.005 µM.
CC(=O)Nc1cccc(C2CCN(CCCn3c(-c4cccnc4)nc4cc([N+](=O)[O-])ccc43)CC2)c1 [Example 117, 5-nitro-2-(pyridin-3-yl)-1-{3-[4-(3-acetamidophenyl)piperidin-1-yl]propyl}-1H-benzimidazole] was tested, and the IC50 was 0.003 µM.
Work on CC(=O)Nc1cccc(C2CCN(CCCn3c(CCc4cccnc4)nc4ccccc43)CC2)c1 [Example 127, 2-[2-(pyridin-3-yl)ethyl]-1-{3-[4-(3-acetamidophenyl)piperidin-1-yl]propyl}-1H-benzimidazole] yielded an IC50 of 0.001 µM.
With CC(=O)Nc1cccc(C2CCN(CCCn3c(-c4cccn4C)nc4ccccc43)CC2)c1 [Example 111, 2-(1-methylpyrrol-2-yl)-1-{3-[4-(3-acetylaminophenyl)piperidin-1-yl]propyl}-1H-benzimidazole] the IC50 was 0.009 µM.
For CC(=O)Nc1cccc(C2CCN(CCCn3c(-c4ccc(F)c(F)c4)nc4ccccc43)CC2)c1 [Example 50, 2-(3,4-difluorophenyl)-1-{3-[4-(3-acetylaminophenyl)piperidin-1-yl]propyl}-1H-benzimidazole], the IC50 was 0.004 µM.
With CC(=O)Nc1cccc(C2CCN(CCn3c(-c4ccccc4)nc4ccccc43)CC2)c1 [Example 1, 2-phenyl-1-{2-[4-(3-acetylaminophenyl)piperidin-1-yl]ethyl}-1H-benzimidazole] the IC50 was > 10 µM.
Compound CC(=O)Nc1cccc(C2CCN(CCCn3c(-c4ccc(-c5ccccc5)cc4)nc4ccccc43)CC2)c1 [Example 46, 2-(4-biphenyl)-1-{3-[4-(3-acetylaminophenyl)piperidin-1-yl]propyl}-1H-benzimidazole] has an IC50 of 0.008 µM.
With CC(=O)Nc1cccc(C2CCN(CCCn3c(-c4cscn4)nc4ccccc43)CC2)c1 [Example 122, 2-(thiazol-4-yl)-1-{3-[4-(3-acetamidophenyl)piperidin-1-yl]propyl}-1H-benzimidazole] the IC50 was 0.306 µM.
With CC(=O)Nc1cccc(C2CCN(CCCn3c(-c4ccccn4)nc4ccccc43)CC2)c1 [Example 104, 2-(pyridin-2-yl)-1-{3-[4-(3-acetamidophenyl)piperidin-1-yl]propyl}-1H-benzimidazole] the IC50 was 0.033 µM.
Work on CCc1nc2cc(Br)c(C)nc2n1CCCN1CCC(c2cccc(NC(C)=O)c2)CC1 [Example 93, 6-bromo-2-ethyl-5-methyl-3-{3-[4-(3-acetylaminophenyl)piperidin-1-yl]propyl}-3H-imidazo[4,5-b]pyridine] yielded an IC50 of 0.098 µM.
For CC(=O)Nc1cccc(C2CCN(CCCn3c(-c4ccc(C#N)cc4)nc4cc(C)c(C)cc43)CC2)c1 [Example 78, 2-(4-cyanophenyl)-1-{3-[4-(3-acetylaminophenyl)piperidin-1-yl]propyl}-5,6-dimethyl-1H-benzimidazole], the IC50 was 0.1 µM.
